Biological target: Glutathione S-transferase class-mu 26 kDa isozyme (Schistosoma japonicum, UniProt P08515)
Assay: GST–glutathione bead interaction interference profiling – biochemical, multiplex beads, flow cytometry, profiling panel (AID 1769)

Glutathione S-transferase class-mu 26 kDa isozyme, sequence (P08515 2-218 limits assumed): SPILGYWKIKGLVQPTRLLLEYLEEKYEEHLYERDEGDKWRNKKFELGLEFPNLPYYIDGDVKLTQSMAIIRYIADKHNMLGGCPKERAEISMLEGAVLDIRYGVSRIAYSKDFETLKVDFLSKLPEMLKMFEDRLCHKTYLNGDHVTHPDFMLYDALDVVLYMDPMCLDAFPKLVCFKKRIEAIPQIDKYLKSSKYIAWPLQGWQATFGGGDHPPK

| Compound | EC50 |
| --- | --- |
| CCOC1=CC(=Cc2sc(=O)[nH]c2N)C=CC1=O | 2.47 µM |
| CC(N=Nc1ccc(S(N)(=O)=O)cc1[N+](=O)[O-])c1ccc2c(c1)OCO2 (stereo not drawn) | 1.4 µM |
| CCn1cc(C(=O)O)c(=O)c2cc(F)c(N=NCc3ccccc3)cc21 [1-Ethyl-6-fluoro-4-oxo-7-{N'-[1-phenyl-meth-(E)-ylidene]-hydrazino}-1,4-dihydro-quinoline-3-carboxylic acid] | 3.88 µM |
| CC(C)NC(=S)NN=C1C(=O)Nc2ccc([N+](=O)[O-])cc21 [1-[(5-nitro-2-oxidanylidene-indol-3-yl)amino]-3-propan-2-yl-thiourea] | 1.43 µM |
| NC(=S)NNC1=c2cc(Br)cc(Br)c2=NC1=O [1-[[5,7-bis(bromanyl)-2-oxidanylidene-indol-3-yl]amino]thiourea] | 69.1 µM |
| O=c1[nH]c(=O)c2nnc(N=NCc3ccc(O)cc3)nc2[nH]1 [3-[2-[(4-oxidanylidenecyclohexa-2,5-dien-1-ylidene)methyl]hydrazinyl]-5H-pyrimido[4,5-e][1,2,4]triazine-6,8-dione] | 3.79 µM |
| Cc1nc(N=NCc2ccc(O)cc2)c2cnn(-c3ccccc3)c2n1 [4-[[(6-methyl-1-phenyl-4-pyrazolo[3,4-d]pyrimidinyl)hydrazo]methylidene]-1-cyclohexa-2,5-dienone] | 3.58 µM |
| COC(=O)c1cc(NC(=O)c2cccc(Cl)c2)c(=O)oc1CC=Nc1cc(C)cc(C)c1 [5-[(3-chlorobenzoyl)amino]-2-[(E)-2-(3,5-dimethylanilino)vinyl]-6-keto-pyran-3-carboxylic acid methyl ester] | 0.567 µM |
| COc1ccc(-c2csc(-c3c(O)cn(C(C)C)c3N)n2)cc1OC [5-amino-4-[4-(3,4-dimethoxyphenyl)-1,3-thiazol-2-yl]-1-propan-2-yl-2H-pyrrol-3-one] | 87.3 µM |
| COc1ccc(N=CCc2nc(SC)nnc2C)cc1 [(4-methoxyphenyl)-[(E)-2-[6-methyl-3-(methylthio)-1,2,4-triazin-5-yl]vinyl]amine] | 2.76 µM |
| COc1cc(CN=Nc2nc(C)nc3c2cnn3-c2ccccc2)ccc1O [(4E)-2-methoxy-4-[[(6-methyl-1-phenyl-4-pyrazolo[3,4-d]pyrimidinyl)hydrazo]methylidene]-1-cyclohexa-2,5-dienone] | 0.638 µM |
| Cc1cc(N=NCc2ccc(O)cc2O)nc(-n2nc(C)cc2C)n1 [(4E)-4-[[2-[2-(3,5-dimethylpyrazol-1-yl)-6-methyl-pyrimidin-4-yl]hydrazinyl]methylidene]-3-oxidanyl-cyclohexa-2,5-dien-1-one] | 0.831 µM |
| CCN(c1ccc(NC=C2C(=O)N(Cc3ccc(OC)cc3)C(=O)c3ccccc32)cc1)C(C)C [(4E)-4-[[[4-[ethyl(propan-2-yl)amino]phenyl]amino]methylidene]-2-[(4-methoxyphenyl)methyl]isoquinoline-1,3-dione] | 0.249 µM |
| Cc1ccc(O)c(/N=C/C2=CC(Cc3ccccc3)C=C([N+](=O)[O-])C2=O)c1 (stereo not drawn) [(6E)-6-[[(5-methyl-2-oxidanyl-phenyl)amino]methylidene]-2-nitro-4-(phenylmethyl)cyclohexa-2,4-dien-1-one] | 8.29 µM |
| O=c1[nH]c(N=NCc2ccc(O)cc2)nc2ccccc12 [MLS000571412] | 7.68 µM |
| O=C(Cc1ccccc1)NCC(=O)N/N=C1\C(=O)N(Cc2ccc3c(c2)OCO3)c2ccccc21 [MLS000587449] | 12 µM |
| NC(=S)NNC1=c2cc(F)c(F)cc2=NC1=O [MLS000589334] | 15.6 µM |
| CCNC(=S)NN=C1C(=O)Nc2ccc([N+](=O)[O-])cc21 [MLS000773526] | 1.93 µM |
| Oc1ccc2ccccc2c1CN=Nc1nnc(-c2ncc[nH]2)c2ccccc12 [SMR000151639] | 1.95 µM |
| CCn1cc(C(=O)O)c(=O)c2cc(F)c(N=NCc3ccccc3[N+](=O)[O-])cc21 [SMR000171611] | 2.67 µM |
| CN1C(=O)/C(=C2/C(=O)Nc3ccccc32)NC1=S [SMR000198608] | 13.4 µM |
| CCOc1ccc2c(c1)C(=NN=C(N)N)C(=O)N2C [SMR000207554] | 25.6 µM |
| COc1cc(CN=Nc2ncnc3sc4c(c23)CCC4)ccc1O [SMR000242188] | 14.5 µM |
